According to the NIST ThermoML archive (doi:10.1021/je060271a):
Numbers after ± are expanded uncertainties.

Settings: 283.16 K, Liquid, Vibrating tube method

CCCC(=O)OCC(COC(=O)CCC)(COC(=O)CCC)COC(=O)CCC [pentaerythritol tetrabutyrate]
Settings	mass density [kg/m3]
13019 kPa	1066.7 ± 1.3
13044 kPa	1066.7 ± 1.3
13070 kPa	1066.6 ± 1.3
13101 kPa	1066.6 ± 1.3
13127 kPa	1066.5 ± 1.3
13208 kPa	1066.8 ± 1.3
13264 kPa	1066.8 ± 1.3
13291 kPa	1066.8 ± 1.3
13317 kPa	1066.7 ± 1.3
13343 kPa	1066.8 ± 1.3
13374 kPa	1066.8 ± 1.3
13401 kPa	1066.8 ± 1.3
13427 kPa	1066.8 ± 1.3
13460 kPa	1066.8 ± 1.3
13487 kPa	1066.9 ± 1.3
13514 kPa	1066.9 ± 1.3
13541 kPa	1066.9 ± 1.3
13574 kPa	1066.9 ± 1.3
13601 kPa	1066.9 ± 1.3
13628 kPa	1066.9 ± 1.3
13661 kPa	1067 ± 1.3
13689 kPa	1066.9 ± 1.3
13722 kPa	1067.2 ± 1.3
13750 kPa	1067 ± 1.3
13778 kPa	1067 ± 1.3
13807 kPa	1067.1 ± 1.3
13841 kPa	1067 ± 1.3
13870 kPa	1067.1 ± 1.3
13927 kPa	1067.1 ± 1.3
13962 kPa	1067 ± 1.3
13990 kPa	1067.2 ± 1.3
14025 kPa	1067.1 ± 1.3
14054 kPa	1067.1 ± 1.3
14084 kPa	1067.2 ± 1.3
14113 kPa	1067.2 ± 1.3
14149 kPa	1067.3 ± 1.3
14178 kPa	1067.2 ± 1.3
14208 kPa	1067.2 ± 1.3
14245 kPa	1067.2 ± 1.3
14275 kPa	1067.3 ± 1.3
14306 kPa	1067.5 ± 1.3
14343 kPa	1067.3 ± 1.3
14374 kPa	1067.3 ± 1.3
14405 kPa	1067.4 ± 1.3
14436 kPa	1067.4 ± 1.3
14474 kPa	1067.4 ± 1.3
14504 kPa	1067.4 ± 1.3
14536 kPa	1067.5 ± 1.3
14574 kPa	1067.4 ± 1.3
14605 kPa	1067.5 ± 1.3
14638 kPa	1067.5 ± 1.3
14677 kPa	1067.4 ± 1.3
14709 kPa	1067.5 ± 1.3
14741 kPa	1067.6 ± 1.3
14774 kPa	1067.5 ± 1.3
14814 kPa	1067.7 ± 1.3
14846 kPa	1067.6 ± 1.3
14886 kPa	1067.6 ± 1.3
14919 kPa	1067.6 ± 1.3
14952 kPa	1067.7 ± 1.3
14985 kPa	1067.6 ± 1.3
15026 kPa	1067.6 ± 1.3
15059 kPa	1067.8 ± 1.3
15094 kPa	1067.7 ± 1.3
15136 kPa	1067.7 ± 1.3
15170 kPa	1067.7 ± 1.3
15205 kPa	1067.7 ± 1.3
15246 kPa	1067.9 ± 1.3
15282 kPa	1067.9 ± 1.3
15317 kPa	1067.9 ± 1.3
15359 kPa	1067.8 ± 1.3
15394 kPa	1067.9 ± 1.3
15430 kPa	1068 ± 1.3
15473 kPa	1067.9 ± 1.3
15545 kPa	1067.9 ± 1.3
15944 kPa	1068.3 ± 1.3
15983 kPa	1068.2 ± 1.3
16022 kPa	1068.3 ± 1.3
16069 kPa	1068.4 ± 1.3
16110 kPa	1068.4 ± 1.3
16153 kPa	1068.4 ± 1.3
16192 kPa	1068.3 ± 1.3
16240 kPa	1068.4 ± 1.3
16281 kPa	1068.3 ± 1.3
16322 kPa	1068.3 ± 1.3
16363 kPa	1068.4 ± 1.3
16414 kPa	1068.4 ± 1.3
16456 kPa	1068.5 ± 1.3
16498 kPa	1068.5 ± 1.3
16547 kPa	1068.6 ± 1.3
16580 kPa	1068.5 ± 1.3
16614 kPa	1068.6 ± 1.3
16656 kPa	1068.6 ± 1.3
16691 kPa	1068.8 ± 1.3
16726 kPa	1068.6 ± 1.3
16769 kPa	1068.7 ± 1.3
16805 kPa	1068.8 ± 1.3
16839 kPa	1068.7 ± 1.3
16871 kPa	1068.8 ± 1.3
16898 kPa	1068.8 ± 1.3
16924 kPa	1068.6 ± 1.3
16956 kPa	1068.8 ± 1.3
16983 kPa	1068.7 ± 1.3
17011 kPa	1068.9 ± 1.3
17044 kPa	1068.9 ± 1.3
17074 kPa	1068.9 ± 1.3
17104 kPa	1068.8 ± 1.3
17139 kPa	1069 ± 1.3
17162 kPa	1068.9 ± 1.3
17182 kPa	1068.8 ± 1.3
17202 kPa	1069 ± 1.3
17225 kPa	1068.9 ± 1.3
17237 kPa	1069 ± 1.3
17246 kPa	1069 ± 1.3
17257 kPa	1069 ± 1.3
17266 kPa	1069 ± 1.3
17275 kPa	1068.9 ± 1.3
17284 kPa	1068.8 ± 1.3
17295 kPa	1069 ± 1.3
17304 kPa	1068.9 ± 1.3
17313 kPa	1069.1 ± 1.3
17322 kPa	1069.1 ± 1.3
17333 kPa	1069.1 ± 1.3
17342 kPa	1069 ± 1.3
17352 kPa	1069 ± 1.3
17362 kPa	1069.1 ± 1.3
17371 kPa	1069 ± 1.3
17380 kPa	1069.1 ± 1.3
17391 kPa	1069.1 ± 1.3
17400 kPa	1069 ± 1.3
17411 kPa	1069 ± 1.3
17420 kPa	1069 ± 1.3
17429 kPa	1069.2 ± 1.3
17440 kPa	1069.1 ± 1.3
17449 kPa	1069.1 ± 1.3
17458 kPa	1069 ± 1.3
17469 kPa	1069.1 ± 1.3
17478 kPa	1069.1 ± 1.3
17487 kPa	1069 ± 1.3
17498 kPa	1069.2 ± 1.3
17508 kPa	1069.1 ± 1.3
17517 kPa	1069.1 ± 1.3
17528 kPa	1069.1 ± 1.3
17538 kPa	1069.1 ± 1.3
17547 kPa	1069.1 ± 1.3
17556 kPa	1069.2 ± 1.3
17568 kPa	1069.2 ± 1.3
17577 kPa	1069.2 ± 1.3
17586 kPa	1069.2 ± 1.3
17598 kPa	1069.1 ± 1.3
17607 kPa	1069.2 ± 1.3
17618 kPa	1069.1 ± 1.3
17628 kPa	1069.2 ± 1.3
17637 kPa	1069.2 ± 1.3
17646 kPa	1069.1 ± 1.3
17658 kPa	1069.1 ± 1.3
17668 kPa	1069.2 ± 1.3
17678 kPa	1069.3 ± 1.3
17687 kPa	1069.2 ± 1.3
17698 kPa	1069.3 ± 1.3
17708 kPa	1069.2 ± 1.3
17717 kPa	1069.2 ± 1.3
17790 kPa	1069.3 ± 1.3
17800 kPa	1069.4 ± 1.3
17810 kPa	1069.3 ± 1.3
17820 kPa	1069.2 ± 1.3
17831 kPa	1069.3 ± 1.3
17841 kPa	1069.3 ± 1.3
17850 kPa	1069.3 ± 1.3
17862 kPa	1069.3 ± 1.3
17872 kPa	1069.3 ± 1.3
17882 kPa	1069.3 ± 1.3
17892 kPa	1069.3 ± 1.3
17903 kPa	1069.4 ± 1.3
17913 kPa	1069.3 ± 1.3
17922 kPa	1069.4 ± 1.3
17935 kPa	1069.4 ± 1.3
17944 kPa	1069.4 ± 1.3
17954 kPa	1069.3 ± 1.3
17966 kPa	1069.4 ± 1.3
17976 kPa	1069.5 ± 1.3
17986 kPa	1069.4 ± 1.3
17997 kPa	1069.4 ± 1.3
18007 kPa	1069.4 ± 1.3
18017 kPa	1069.5 ± 1.3
18029 kPa	1069.4 ± 1.3
18039 kPa	1069.5 ± 1.3
18049 kPa	1069.3 ± 1.3
18061 kPa	1069.4 ± 1.3
18071 kPa	1069.4 ± 1.3
18081 kPa	1069.5 ± 1.3
18157 kPa	1069.4 ± 1.3
18188 kPa	1069.4 ± 1.3
18199 kPa	1069.5 ± 1.3
18209 kPa	1069.5 ± 1.3
18219 kPa	1069.6 ± 1.3
18231 kPa	1069.6 ± 1.3
18241 kPa	1069.4 ± 1.3
18254 kPa	1069.5 ± 1.3
18286 kPa	1069.5 ± 1.3
18361 kPa	1069.6 ± 1.3
18371 kPa	1069.7 ± 1.3
18381 kPa	1069.5 ± 1.3
18394 kPa	1069.7 ± 1.3
18404 kPa	1069.6 ± 1.3
18414 kPa	1069.7 ± 1.3
18426 kPa	1069.5 ± 1.3
18436 kPa	1069.6 ± 1.3
18449 kPa	1069.6 ± 1.3
18459 kPa	1069.6 ± 1.3
18469 kPa	1069.7 ± 1.3
18480 kPa	1069.6 ± 1.3
18492 kPa	1069.7 ± 1.3
18502 kPa	1069.7 ± 1.3
18513 kPa	1069.7 ± 1.3
18525 kPa	1069.7 ± 1.3
18536 kPa	1069.7 ± 1.3
18548 kPa	1069.7 ± 1.3
18559 kPa	1069.6 ± 1.3
18569 kPa	1069.6 ± 1.3
18579 kPa	1069.8 ± 1.3
18592 kPa	1069.7 ± 1.3
18603 kPa	1069.8 ± 1.3
18614 kPa	1069.7 ± 1.3
18627 kPa	1069.6 ± 1.3
18637 kPa	1069.7 ± 1.3
18648 kPa	1069.8 ± 1.3
18658 kPa	1069.7 ± 1.3
18669 kPa	1069.7 ± 1.3
18682 kPa	1069.8 ± 1.3
18692 kPa	1069.7 ± 1.3
18703 kPa	1069.8 ± 1.3
18716 kPa	1069.7 ± 1.3
18726 kPa	1069.8 ± 1.3
18737 kPa	1069.8 ± 1.3
18750 kPa	1069.8 ± 1.3
18761 kPa	1069.7 ± 1.3
18772 kPa	1069.7 ± 1.3
18783 kPa	1069.8 ± 1.3
18794 kPa	1069.8 ± 1.3
18806 kPa	1069.8 ± 1.3
18817 kPa	1069.9 ± 1.3
18830 kPa	1069.9 ± 1.3
18841 kPa	1069.9 ± 1.3
18851 kPa	1069.8 ± 1.3
18875 kPa	1069.9 ± 1.3
18886 kPa	1069.9 ± 1.3
18910 kPa	1069.9 ± 1.3
18921 kPa	1069.9 ± 1.3
18934 kPa	1069.9 ± 1.3
18945 kPa	1069.9 ± 1.3
19002 kPa	1069.9 ± 1.3
19015 kPa	1069.9 ± 1.3
19026 kPa	1070 ± 1.3
19039 kPa	1070 ± 1.3
19050 kPa	1070 ± 1.3
19062 kPa	1070 ± 1.3
19073 kPa	1070 ± 1.3
19084 kPa	1069.9 ± 1.3
19097 kPa	1070 ± 1.3
19108 kPa	1070.1 ± 1.3
19119 kPa	1070.1 ± 1.3
19132 kPa	1070.1 ± 1.3
19154 kPa	1069.9 ± 1.3
19168 kPa	1070 ± 1.3
19179 kPa	1070.1 ± 1.3
19190 kPa	1070 ± 1.3
19204 kPa	1070 ± 1.3
19215 kPa	1070.1 ± 1.3
19226 kPa	1070.1 ± 1.3
19240 kPa	1070.1 ± 1.3
19251 kPa	1070.1 ± 1.3
19262 kPa	1070.1 ± 1.3
19274 kPa	1070.1 ± 1.3
19287 kPa	1070.1 ± 1.3
19299 kPa	1070 ± 1.3
19310 kPa	1070.2 ± 1.3
19323 kPa	1070.1 ± 1.3
19335 kPa	1070.2 ± 1.3
19408 kPa	1070.2 ± 1.3
19444 kPa	1070.2 ± 1.3
19482 kPa	1070.2 ± 1.3
19493 kPa	1070.2 ± 1.3
19507 kPa	1070.1 ± 1.3
19518 kPa	1070.1 ± 1.3
19530 kPa	1070.2 ± 1.3
19544 kPa	1070.2 ± 1.3
19556 kPa	1070.1 ± 1.3
19568 kPa	1070.3 ± 1.3
19579 kPa	1070.3 ± 1.3
19593 kPa	1070.2 ± 1.3
19605 kPa	1070.3 ± 1.3
